For 17 molecules, T/C results are on record in PubChem BioAssay AID328 (DTP/NCI, 2004).

The structures appear in SMILES notation. Where “and” joins values, the source holds several entries; their conditions need not be identical. Identical values can stand only once. Toxic doses and inconclusive results are not listed.

The assay concerns BDF1 mice, P388 leukemia ip, median survival T/C. Nature of the assay: NCI In Vivo Anticancer Drug Screen. Data for tumor model P388 Leukemia (intraperitoneal) in B6D2F1 (BDF1) mice. Particulars: endpoint: median survival time, higher = longer survival. The procedure, abridged:
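Vehicle-dosed animals serve as the reference; survival of compound-dosed, tumour-implanted mice is divided by it.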

The mark [1] stands for this setting: dose: 50.0 mg/kg/injection, schedule: Q01DX009 (ip), vehicle: saline with Tween-80.
[2] abbreviates: dose: 100.0 mg/kg/injection, schedule: Q01DX009 (ip), vehicle: saline with Tween-80.
The mark [3] stands for this setting: dose: 200.0 mg/kg/injection, schedule: Q01DX009 (ip), vehicle: saline with Tween-80.
The mark [4] stands for this setting: dose: 400.0 mg/kg/injection, schedule: Q01DX009 (ip), vehicle: saline with Tween-80.

Consider `N/C(=N\O)c1cn(C2OC(CO)C(O)C2O)c2ncnc(N)c12` (stereo not given), for which the T/C (dose: 0.6 mg/kg/injection, schedule: Q01DX009 (ip), vehicle: Klucel (hydroxypropylcellulose) (HPC)) was 150 % of control; the T/C (dose: 1.25 mg/kg/injection, schedule: Q01DX009 (ip), vehicle: Klucel (hydroxypropylcellulose) (HPC)) is 168 % of control; the T/C (dose: 2.5 mg/kg/injection, schedule: Q01DX009 (ip), vehicle: Klucel (hydroxypropylcellulose) (HPC)) was 154 % of control; the T/C (dose: 5.0 mg/kg/injection, schedule: Q01DX009 (ip), vehicle: Klucel (hydroxypropylcellulose) (HPC)) was 172 % of control.

For the molecule `Ic1ccc(N=Cc2cccs2)cc1`, the T/C was 117 % of control under setting [1], 99 % of control under setting [2], 97 % of control under setting [3] and 108 % of control under setting [4].

Turning to `CCC(C(=O)O)c1ccccc1` (stereo not given), the T/C under setting [1] was 90 % of control and the T/C under setting [3] was 109 % of control.

With `CCS(=O)C(C)(C)C` (stereo not given), the T/C reads like this: under setting [1], 102 % of control; under setting [2], 102 % of control; under setting [3], 102 % of control.

With `CCN=C=NCCCN(C)C`, the T/C by setting is: (dose: 7.5 mg/kg/injection, schedule: Q01DX009 (ip), vehicle: saline) 105 % of control; (dose: 15.0 mg/kg/injection, schedule: Q01DX009 (ip), vehicle: saline) 105 % of control; (dose: 30.0 mg/kg/injection, schedule: Q01DX009 (ip), vehicle: saline) 94 % of control; (dose: 60.0 mg/kg/injection, schedule: Q01DX009 (ip), vehicle: saline) 100 % of control.

Consider `CCOC(=O)c1nc(NC)sc1N`, for which the T/C (dose: 25.0 mg/kg/injection, schedule: Q04DX003 (ip), vehicle: saline) was 97 % of control; the T/C (dose: 50.0 mg/kg/injection, schedule: Q04DX003 (ip), vehicle: saline) is 100 % of control; the T/C (dose: 100.0 mg/kg/injection, schedule: Q04DX003 (ip), vehicle: saline) is 105 % of control; the T/C (dose: 200.0 mg/kg/injection, schedule: Q04DX003 (ip), vehicle: saline) was 96 % of control.

`O=C(O)c1ccc(N=NSc2ncnc3nc[nH]c23)cc1O`: the T/C is, setting by setting: (dose: 1.3 mg/kg/injection, schedule: Q01DX009 (ip), vehicle: saline with Tween-80) 115 % of control; (dose: 3.0 mg/kg/injection, schedule: Q01DX009 (ip), vehicle: saline with Tween-80) 153 % of control; (dose: 4.0 mg/kg/injection, schedule: Q01DX009 (ip), vehicle: saline with Tween-80) 150 % of control; (dose: 6.0 mg/kg/injection, schedule: Q01DX009 (ip), vehicle: saline with Tween-80) 119 % of control and 123 % of control; (dose: 9.0 mg/kg/injection, schedule: Q01DX009 (ip), vehicle: saline with Tween-80) 123 % of control; (dose: 12.0 mg/kg/injection, schedule: Q01DX009 (ip), vehicle: saline with Tween-80) 96 % of control. Besides, the T/C by setting is: (dose: 14.5 mg/kg/injection, schedule: Q04DX003 (ip), vehicle: saline with Tween-80) 122 % of control; (dose: 22.0 mg/kg/injection, schedule: Q04DX003 (ip), vehicle: saline with Tween-80) 122 % of control; (dose: 25.0 mg/kg/injection, schedule: Q04DX003 (ip), vehicle: saline with Tween-80) 161 % of control; (dose: 33.0 mg/kg/injection, schedule: Q04DX003 (ip), vehicle: saline with Tween-80) 118 % of control and 119 % of control; (dose: 50.0 mg/kg/injection, schedule: Q04DX003 (ip), vehicle: saline with Tween-80) 177 % of control; (dose: 75.0 mg/kg/injection, schedule: Q04DX003 (ip), vehicle: saline with Tween-80) 119 % of control.

`CC(C)C(O)(C(=O)NN)C(=O)NN`: the T/C under setting [2] is 100 % of control, the T/C under setting [3] is 109 % of control and the T/C under setting [4] is 100 % of control.

On to `O=[N+]([O-])c1ccc(N2CCOCC2)c2c1no[n+]2[O-]`, for which the T/C runs as follows: (dose: 6.25 mg/kg/injection, schedule: Q01DX009 (ip), vehicle: saline) 95 % of control; (dose: 12.5 mg/kg/injection, schedule: Q01DX009 (ip), vehicle: saline) 100 % of control; (dose: 25.0 mg/kg/injection, schedule: Q01DX009 (ip), vehicle: saline) 108 % of control; (dose: 32.0 mg/kg/injection, schedule: Q04DX003 (ip), vehicle: saline with Tween-80) 150 % of control; (dose: 64.0 mg/kg/injection, schedule: Q04DX003 (ip), vehicle: saline with Tween-80) 160 % of control.

Take `O=C(CCl)N1CCc2ccccc21`: the T/C (dose: 25.0 mg/kg/injection, schedule: Q01DX009 (ip), vehicle: Klucel (hydroxypropylcellulose) (HPC)) was 104 % of control; the T/C (dose: 25.0 mg/kg/injection, schedule: Q04DX003 (ip), vehicle: Klucel (hydroxypropylcellulose) (HPC)) was 90 % of control; the T/C (dose: 50.0 mg/kg/injection, schedule: Q01DX009 (ip), vehicle: Klucel (hydroxypropylcellulose) (HPC)) was 100 % of control; the T/C (dose: 50.0 mg/kg/injection, schedule: Q04DX003 (ip), vehicle: Klucel (hydroxypropylcellulose) (HPC)) was 100 % of control; the T/C (dose: 100.0 mg/kg/injection, schedule: Q01DX009 (ip), vehicle: Klucel (hydroxypropylcellulose) (HPC)) is 86 % of control; the T/C (dose: 100.0 mg/kg/injection, schedule: Q04DX003 (ip), vehicle: Klucel (hydroxypropylcellulose) (HPC)) is 95 % of control.

Turning to `CN(C)[C@@H]1C(=O)C(C(=O)NCN2CCN(C(=N)N=C(N)N)CC2)=C(O)[C@@]2(O)C(=O)C3=C(O)c4c(O)cccc4[C@@](C)(O)[C@H]3C[C@@H]12`, the T/C runs as follows: (dose: 0.1 mg/kg/injection, schedule: Q04DX003 (ip), vehicle: saline) 124 % of control; (dose: 1.0 mg/kg/injection, schedule: Q04DX003 (ip), vehicle: saline) 120 % of control; (dose: 5.0 mg/kg/injection, schedule: Q04DX003 (ip), vehicle: saline) 155 % of control.

On to `Nc1ncc([N+](=O)[O-])c(Cl)n1`, for which the T/C was 103 % of control under setting [1] and 111 % of control under setting [2].

Consider `Cc1ccc2oc3ccccc3c(=O)c2c1`, for which the T/C was 95 % of control (dose: 50.0 mg/kg/injection, schedule: Q01DX001 (ip), vehicle: saline sonified); 95 % of control (dose: 100.0 mg/kg/injection, schedule: Q01DX001 (ip), vehicle: saline sonified); 95 % of control (dose: 200.0 mg/kg/injection, schedule: Q01DX001 (ip), vehicle: saline sonified).

For `O=C(c1ccccc1)C1(C(=O)c2ccccc2)c2ccccc2-c2ccccc21`, the T/C runs as follows: (dose: 50.0 mg/kg/injection, schedule: Q01DX005 (ip), vehicle: Klucel (hydroxypropylcellulose) (HPC)) 101 % of control; (dose: 100.0 mg/kg/injection, schedule: Q01DX005 (ip), vehicle: Klucel (hydroxypropylcellulose) (HPC)) 104 % of control; (dose: 200.0 mg/kg/injection, schedule: Q01DX005 (ip), vehicle: Klucel (hydroxypropylcellulose) (HPC)) 101 % of control.

On to `O=C(CCN1CCCCC1)c1ccc(C(F)(F)F)cc1`, for which the T/C (dose: 0.39 mg/kg/injection, schedule: Q01DX009 (ip), vehicle: saline) is 100 % of control and 116 % of control; the T/C (dose: 0.78 mg/kg/injection, schedule: Q01DX009 (ip), vehicle: saline) was 102 % of control and 116 % of control; the T/C (dose: 1.56 mg/kg/injection, schedule: Q01DX009 (ip), vehicle: saline) is 100 % of control; the T/C (dose: 6.25 mg/kg/injection, schedule: Q01DX009 (ip), vehicle: saline with Tween-80) is 99 % of control.

In the case of `CCC(c1ccc(OC)cc1)C(NCC(=O)N/N=C/c1ccccc1[N+](=O)[O-])c1ccc(OC)cc1` (stereo not given), under “dose: 12.5 mg/kg/injection, schedule: Q01DX001 (ip), vehicle: saline with Tween-80”, the T/C is 91 % of control.

On to `O=c1c2oc3ccccc3c2cnn1CO`, for which the T/C runs as follows: under setting [2], 90 % of control; under setting [3], 116 % of control.
